Source: patent US12486227B2, “Small molecules for cancer therapy that reduce the expression of transcription factors KLF5 and EGR-1” (University of Florida Research Foundation, Incorporated, priority 2019, dated 2025)
pEC50, pIC50: −log10 of the molar value. Like-named read-outs stand apart in the source and are kept apart here.

Assays:
DLD-1 colon cancer cells = assay: MTT viability assay, DLD-1; type: cell-based; details: Homo sapiens; for pEC50: Table 2, read-out: Approximate potency (EC50 · mol/L) (DLD1, MTT assay)
Excerpt: Specific Examples of compounds of the present disclosure have EC50 values estimated using a cell-based assay for binding to the KLF5 promoter and, in many cases, a follow-up viability assay (MTT) using DLD-1 colon cancer cells, a cell line known to highly express KLF5 and whose growth is adversely affected by the reduction of KLF5 levels. Assay protocols follow those described in the literature.^22,23 Other assays that are not described here but that are standard in the field may also be useful in establishing mechanism of action of these compounds.

Cyclin D1, E, A2, and B1 = assay: Western blot of cyclin levels; type: cell-based, human; details: DLD-1 and HCT116, 1 μM or 10 μM, 72 h
Excerpt: Cyclins and their appropriate cyclin-dependent kinases form a regulatory network that allow cells to progress through the cell cycle (39, 40). […] SR15006, or SR18662, as compared to vehicle-treated cells. Thus, we investigated if these changes are accompanied by differences in the expression levels of cyclins. We focused our attention on Cyclin D1, E, A2, and B1, as we have previously shown that ML264 has inhibitory effect on their levels (24). […] Additionally, in contrast to ML264 or SR15006, SR18862 induced apoptosis and cell death.
(§1) Western blot analysis. Total protein was extracted from cells with Laemmli buffer and the analysis was performed as described previously (24).

human KLF5 promoter = assay: KLF5 promoter activity luciferase assay in DLD-1/pGL4.18hKLF5p cells; type: cell-based; details: for pEC50: read-out: Approximate potency (EC50 · mol/L) (luciferase)
Method: To examine the impact of these compounds on viability of CRC cell lines, we performed cell proliferation and cell growth assays using DLD-1 and HCT116 CRC cells. […] KLF5 promoter activity assay. DLD-1/pGL4.18hKLF5p cells were seeded in 96 well plate format and treated with DMSO or with test compounds dissolved in DMSO in the range of 0.001 to 20 μM final concentration for 24 h and the human KLF5 promoter activity was determined with the ONE-Glo luciferase assay system (Promega) using a SpectramMax M3 (Molecular Devices) plate reader. The IC50 values were calculated using GraphPad Prism version 5.00 for Windows (GraphPad Software) (22).

MAPK pathway = assay: Western blot of MAPK signaling pathway components; type: cell-based, human; details: DLD-1 and HCT116, 10 μM, 72 h
Excerpt: SR18662 negatively regulates MAPK and WNT signaling pathway and cyclin levels. Myriad publications have shown that in both in vitro and in vivo contexts KLF5 is regulated by MAPK and WNT signaling pathways and that KLF5, in turn, has the ability to modulate the activity of these pathways (14, 18, 26-32). We have previously shown that treatment of CRCs with ML264 results in decreased activity of both the MAPK and WNT signaling pathways (24). Because SR15006 and SRI8662 are structurally related to ML264, we decided to investigate their ability to alter the expression levels of the components of these pathways. Thus, we treated DLD-1 and HCT116 CRCs with DMSO (vehicle) and tested compounds at 1 μM or 10 μM, collecting the cells for western blot analysis at 24, 48, and 72 h. […] Similar effects were seen when both cell lines were treated these compounds at 1 μM. Furthermore, the inhibitory effects of SR18662 on the components of the MAPK signaling pathway we observed at earlier time points than were apparent following treatment with ML264 or SR15006.
as §1

[1] = test system: DLD-1 and HCT116 CRC cells; assay: Cell cycle analysis by flow cytometry (propidium iodide); type: cell-based, human; details: 10 μM, over three days
Method: SR18662 alters the cell cycle pattern of CRCs. […] We have also evaluated the impact of SR15006 and SR18662 on cell cycle progression. We treated DLD-1 and HCT116 CRC cells over the course of three days with vehicle or 1 μM or 10 μM of test compound and then analyzed cell cycle using flow cytometry.
Cell proliferation, cell cycle and apoptosis assays. For cell proliferation experiments, cell cycle, and apoptosis determination, DLD-1 and HCT116 cells were treated with 1 or 10 μM of each compound or with vehicle (DMSO). The cells were collected at 24, 48, and 72 h post-treatment and analyzed as previously described (24). Each experiment was performed in triplicate.

KLF5 = assay: Western blot of KLF5 protein levels in DLD-1 cells; type: cell-based, human; details: 1 μM and 10 μM, 24 h
Method: In this experiment the test compounds were at 1 μM and 10 μM, and protein levels were measured after 24 h.
as §1

[2] = test system: SW-620 colorectal cancer cell line; assay: MTT growth assay, SW-620; type: cell-based; details: Homo sapiens, Table 1
Excerpt: (§2) The observed activity is greater than that previously seen for ML264.

[3] = test system: HCT-116 colorectal cancer cell line; assay: MTT growth assay, HCT-116; type: cell-based; details: Homo sapiens, Table 1
Excerpt: as §2

[4] = test system: DLD-1-derived tumor xenografts; details: once a day 25 mg/kg; cited from earlier work
[5] = test system: HT-29 colorectal cancer cell line; assay: MTT growth assay, HT-29; type: cell-based; details: Homo sapiens, Table 1
Excerpt: as §2

pEC50 (DLD-1 colon cancer cells) | pEC50 (human KLF5 promoter; Homo sapiens, DLD-1, Table 2) | SMILES | other results
7.79 | 7.38 | CS(=O)(=O)N1CCN(C(=O)CNC(=O)/C=C/c2cccc(Cl)c2)CC1 [Example 1, (E)-3-(3-chlorophenyl)-N-(2-(4-(methylsulfonyl)piperazin-1-yl)-2-oxoethyl)acrylamide] | levels of cyclins (Cyclin D1, E, A2, and B1): significant reduction in the levels of tested cyclins; pIC50 (human KLF5 promoter; Homo sapiens, DLD-1, 24 h treatment, FIG. 1B, read-out: IC50, human KLF5 promoter activity): 7.38; expression levels of MAPK pathway components (MAPK pathway): negatively regulated the expression levels of the components of the MAPK pathway; cell cycle distribution [1]: affected the cell cycle in the similar way as did ML264; KLF5 protein levels by Western blot (KLF5): significantly reduced
6.85 | 5.85 | CS(=O)(=O)NCC1CCN(C(=O)CNC(=O)/C=C/c2cccc(Cl)c2)CC1 [Example 2, (E)-3-(3-chlorophenyl)-N-(2-(4-(methylsulfonamidomethyl)piperidin-1-yl)-2-oxoethyl)acrylamide] | –
– | 6.07 | CS(=O)(=O)NCC1CCN(C(=O)CNC(=O)/C=C/c2cccc(Cl)c2)C1 (centres unmarked) [Example 3, (E)-3-(3-chlorophenyl)-N-(2-(3-(methylsulfonamidomethyl)pyrrolidin-1-yl)-2-oxoethyl)acrylamide] | –
5.56 | – | CS(=O)(=O)N1CCC(CNC(=O)CNC(=O)/C=C/c2cccc(Cl)c2)CC1 [Example 4, (E)-3-(3-chlorophenyl)-N-(2-(((1-(methylsulfonyl)piperidin-4-yl)methyl)amino)-2-oxoethyl)acrylamide] | –
8.49 | – | CS(=O)(=O)N1CCC(CNC(=O)CNC(=O)/C=C/c2cccc(Cl)c2)C1 (centres unmarked) [Example 5, (E)-3-(3-chlorophenyl)-N-(2-(((1-(methylsulfonyl)pyrrolidin-3-yl)methyl)amino)-2-oxoethyl)acrylamide] | –
– | 5.97 | CS(=O)(=O)N1CCCN(C(=O)CNC(=O)/C=C/c2cccc(Cl)c2)CC1 [Example 6, (E)-3-(3-chlorophenyl)-N-(2-(4-(methylsulfonyl)-1,4-diazepan-1-yl)-2-oxoethyl)acrylamide] | –
6.46 | 5.89 | O=C(/C=C/c1cccc(Cl)c1)NCC(=O)N1CCN(S(=O)(=O)C2CCCCC2)CC1 [Example 7, (E)-3-(3-chlorophenyl)-N-(2-(4-(cyclohexylsulfonyl)piperazin-1-yl)-2-oxoethyl)acrylamide] | –
6.49 | 5.15 | CC(C)CS(=O)(=O)N1CCN(C(=O)CNC(=O)/C=C/c2cccc(Cl)c2)CC1 [Example 8, (E)-3-(3-chlorophenyl)-N-(2-(4-(isobutylsulfonyl)piperazin-1-yl)-2-oxoethyl)acrylamide] | –
7.20 | 6.77 | COc1ccc(/C=C/C(=O)NCC(=O)N2CCN(S(C)(=O)=O)CC2)cc1Cl [Example 10, (E)-3-(3-chloro-4-methoxyphenyl)-N-(2-(4-(methylsulfonyl)piperazin-1-yl)-2-oxoethyl)acrylamide] | –
7.60 | 7.58 | CS(=O)(=O)N1CCN(C(=O)CNC(=O)/C=C/c2ccc(F)c(Cl)c2)CC1 [Example 11, (E)-3-(3-chloro-4-fluorophenyl)-N-(2-(4-(methylsulfonyl)piperazin-1-yl)-2-oxoethyl)acrylamide] | –
7.13 | 7.06 | CS(=O)(=O)N1CCN(C(=O)CNC(=O)/C=C/c2cccc(Br)c2)CC1 [Example 12, (E)-3-(3-bromophenyl)-N-(2-(4-(methylsulfonyl)piperazin-1-yl)-2-oxoethyl)acrylamide] | –
7.11 | 6.97 | CS(=O)(=O)N1CCN(C(=O)CNC(=O)/C=C/c2cc(Cl)cc(Cl)c2)CC1 [Example 13, (E)-3-(3,5-dichlorophenyl)-N-(2-(4-(methylsulfonyl)piperazin-1-yl)-2-oxoethyl)acrylamide] | –
7.39 | 7.34 | CS(=O)(=O)N1CCN(C(=O)CNC(=O)/C=C/c2ccc(F)c(F)c2)CC1 [Example 14, (E)-3-(3,4-difluorophenyl)-N-(2-(4-(methylsulfonyl)piperazin-1-yl)-2-oxoethyl)acrylamide] | –
8.44 | 8.20 | Cc1ccc(/C=C/C(=O)NCC(=O)N2CCN(S(C)(=O)=O)CC2)cc1Cl [Example 15, (E)-3-(3-chloro-4-methylphenyl)-N-(2-(4-(methylsulfonyl)piperazin-1-yl)-2-oxoethyl)acrylamide] | –
6.50 | – | CS(=O)(=O)N1CCN(C(=O)CNC(=O)/C=C/c2ccc(C(F)(F)F)c(Cl)c2)CC1 [Example 16, (E)-3-(3-chloro-4-(trifluoromethyl)phenyl)-N-(2-(4-(methylsulfonyl)piperazin-1-yl)-2-oxoethyl)acrylamide] | Approximate potency (EC50 · mol/L) (luciferase) (human KLF5 promoter; Table 2): Not converged
5.79 | 5.10 | CS(=O)(=O)N1CCN(C(=O)CNC(=O)/C=C/c2ccc(OC(F)(F)F)c(Cl)c2)CC1 [Example 17, (E)-3-(3-chloro-4-(trifluoromethoxy)phenyl)-N-(2-(4-(methylsulfonyl)piperazin-1-yl)-2-oxoethyl)acrylamide] | –
7.82 | 7.70 | CS(=O)(=O)N1CCN(C(=O)CNC(=O)/C=C/c2ccc3c(c2)OCO3)CC1 [Example 18, (E)-3-(benzo[d][1,3]dioxol-5-yl)-N-(2-(4-(methylsulfonyl)piperazin-1-yl)-2-oxoethyl)acrylamide] | –
– | – | CN(C(=O)CNC(=O)/C=C/c1cccc(Cl)c1)C1CCS(=O)(=O)CC1 [ML264, reference compound] | EC50 (DLD-1 colon cancer cells; MTT, Table 1, read-out: EC50 (nM) DLD-1): 13 nM; levels of cyclins (Cyclin D1, E, A2, and B1): significant reduction in the levels of tested cyclins; expression levels of MAPK pathway components (MAPK pathway): negatively regulated the expression levels of the components of the MAPK pathway; pEC50 [2]: 6.39; EC50 [3]: 34 nM; growth of CRC xenografts [4]: significantly reduced the growth; cell cycle distribution [1]: significant decrease in the number of cells in G0/G1 and an increase in cells in S- and G2/M phases; KLF5 protein levels by Western blot (KLF5): significantly reduced; EC50 [5]: 295 nM
